Measured values as given in ChEMBL document CHEMBL4477257, “In vitro cytotoxicity of novel 2,5,7-tricarbo-substituted indoles derived from 2-amino-5-bromo-3-iodoacetophenone” (2016).
The source made the active and inactive calls. The rule behind the calls is not given here.

Assays:
[1] = tested on: MCF7; assay: Cytotoxicity against human MCF7 cells assessed as cell viability at 10 uM after 2 days by MTT assay relative to control; format: functional; conditions: MCF7, 48 h, read-out: Activity
[2] = tested on: MCF7; assay: Cytotoxicity against human MCF7 cells assessed as reduction in cell viability after 2 days by MTT assay; format: functional; conditions: MCF7, 48 h, read-out: LC50 (the source's name)
[3] = tested on: HeLa; assay: Cytotoxicity against human HeLa cells assessed as cell viability at 100 uM after 2 days by MTT assay relative to control; format: functional; conditions: 48 h, read-out: Activity
[4] = tested on: MCF7; assay: Cytotoxicity against human MCF7 cells assessed as cell viability at 100 uM after 2 days by MTT assay relative to control; format: functional; conditions: MCF7, 48 h, read-out: Activity
[5] = tested on: HeLa; assay: Cytotoxicity against human HeLa cells assessed as cell viability at 0.1 uM after 2 days by MTT assay relative to control; format: functional; conditions: 48 h, read-out: Activity
[6] = tested on: MCF7; assay: Cytotoxicity against human MCF7 cells assessed as cell viability at 0.1 uM after 2 days by MTT assay relative to control; format: functional; conditions: MCF7, 48 h, read-out: Activity
[7] = tested on: HeLa; assay: Cytotoxicity against human HeLa cells assessed as cell viability at 1 uM after 2 days by MTT assay relative to control; format: functional; conditions: 48 h, read-out: Activity
[8] = tested on: HeLa; assay: Cytotoxicity against human HeLa cells assessed as cell viability at 10 uM after 2 days by MTT assay relative to control; format: functional; conditions: 48 h, read-out: Activity
[9] = tested on: MCF7; assay: Cytotoxicity against human MCF7 cells assessed as cell viability at 1 uM after 2 days by MTT assay relative to control; format: functional; conditions: MCF7, 48 h, read-out: Activity
[10] = tested on: HeLa; assay: Cytotoxicity against human HeLa cells assessed as reduction in cell viability after 2 days by MTT assay; format: functional; conditions: 48 h, read-out: LC50 (the source's name)
[11] = tested on: HeLa; assay: Induction of apoptosis in human HeLa cells assessed as early apoptotic cells at 10 uM after 48 hrs by Annexin V/propidium iodide staining based flow cytometric analysis (reference value: 0.05 +/- 0.07 %); format: functional
[12] = tested on: HeLa; assay: Induction of apoptosis in human HeLa cells assessed as late apoptotic cells at 10 uM after 48 hrs by Annexin V/propidium iodide staining based flow cytometric analysis (reference value: 31.80 +/- 0.25 %); format: functional
[13] = tested on: HeLa; assay: Induction of apoptosis in human HeLa cells assessed as necrotic cells at 5 uM after 48 hrs by Annexin V/propidium iodide staining based flow cytometric analysis (reference value: 21.45 +/- 0.78 %); format: functional
[14] = tested on: HeLa; assay: Induction of apoptosis in human HeLa cells assessed as viable cells at 10 uM after 48 hrs by Annexin V/propidium iodide staining based flow cytometric analysis (reference value: 46.00 +/- 0.56 %); format: functional; conditions: read-out: Activity
[15] = tested on: HeLa; assay: Induction of apoptosis in human HeLa cells assessed as necrotic cells at 10 uM after 48 hrs by Annexin V/propidium iodide staining based flow cytometric analysis (reference value: 21.45 +/- 0.78 %); format: functional
[16] = tested on: HeLa; assay: Induction of apoptosis in human HeLa cells assessed as early apoptotic cells at 5 uM after 48 hrs by Annexin V/propidium iodide staining based flow cytometric analysis (reference value: 0.05 +/- 0.07 %); format: functional
[17] = tested on: HeLa; assay: Induction of apoptosis in human HeLa cells assessed as late apoptotic cells at 2.5 uM after 48 hrs by Annexin V/propidium iodide staining based flow cytometric analysis (reference value: 31.80 +/- 0.25 %); format: functional
[18] = tested on: HeLa; assay: Induction of apoptosis in human HeLa cells assessed as viable cells at 5 uM after 48 hrs by Annexin V/propidium iodide staining based flow cytometric analysis (reference value: 46.00 +/- 0.56 %); format: functional; conditions: read-out: Activity
[19] = tested on: HeLa; assay: Induction of apoptosis in human HeLa cells assessed as DNA fragmentation at 2.5 to 10 uM after 48 hrs by ethidium bromide staining based agarose gel electrophoresis; format: functional, cell-based
[20] = tested on: HeLa; assay: Induction of apoptosis in human HeLa cells assessed as viable cells at 2.5 uM after 48 hrs by Annexin V/propidium iodide staining based flow cytometric analysis (reference value: 46.00 +/- 0.56 %); format: functional; conditions: read-out: Activity
[21] = tested on: HeLa; assay: Induction of apoptosis in human HeLa cells assessed as necrotic cells at 2.5 uM after 48 hrs by Annexin V/propidium iodide staining based flow cytometric analysis (reference value: 21.45 +/- 0.78 %); format: functional
[22] = tested on: HeLa; assay: Induction of apoptosis in human HeLa cells assessed as caspase 3 activation at 2.5 to 10 uM after 24 hrs by colorimetric analysis; format: functional
[23] = tested on: HeLa; assay: Induction of apoptosis in human HeLa cells assessed as late apoptotic cells at 5 uM after 48 hrs by Annexin V/propidium iodide staining based flow cytometric analysis (reference value: 31.80 +/- 0.25 %); format: functional
[24] = tested on: HeLa; assay: Induction of apoptosis in human HeLa cells after 48 hrs by Annexin V/propidium iodide staining based flow cytometric analysis; format: functional, cell-based
[25] = tested on: HeLa; assay: Induction of apoptosis in human HeLa cells assessed as early apoptotic cells at 2.5 uM after 48 hrs by Annexin V/propidium iodide staining based flow cytometric analysis (reference value: 0.05 +/- 0.07 %); format: functional

SMILES | viability at 10 µM [1] | CC50 [2] | viability at 100 µM [3] | viability at 100 µM [4] | viability at 0.1 µM [5] | viability at 0.1 µM [6] | viability at 1 µM [7] | viability at 10 µM [8] | viability at 1 µM [9] | CC50 [10] | further results
CC(=O)c1cc(-c2ccc(F)cc2)cc2cc(-c3ccccc3)[nH]c12 | 73.8% | > 100 µM | 24.8% | 36.4% | 90.3% | 98.3% | 82.7% | 55.7% | 82.7% | 38 µM | –
COc1ccc(-c2cc(C(C)=O)c3[nH]c(-c4ccc(OC)cc4)cc3c2)cc1 | 56.4% | 25.2 µM | 20.2% | 39.9% | 74.5% | 96.5% | 60.2% | 37.1% | 62.6% | 7.13 µM | Activity [11]: 0.15%; Activity [12]: 47.75%; Activity [13]: 42.65%; viability at 10 µM [14]: 3.7%; Activity [15]: 47.4%; Activity [16]: 0.15%; Activity [17]: 12.9%; viability at 5 µM [18]: 20.4%; Activity [19]: Active; viability at 2.5 µM [20]: 65.2%; Activity [21]: 23.2%; fold change (FC) [22]: 4; Activity [23]: 37.55%; Activity [24]: Dose-dependent effect; Activity [25]: 0.1%
COc1ccc(-c2cc3cc(-c4ccccc4)cc(C(C)=O)c3[nH]2)cc1 | 64.5% | > 100 µM | 32.8% | 43.5% | 80.5% | 87% | 61.5% | 51.6% | 78.1% | 18.9 µM | –
COc1ccc(-c2cc(C(C)=O)c3[nH]c(-c4ccccc4)cc3c2)cc1 | 49.5% | 47.8 µM | 21.1% | 30.8% | 87.9% | 99.2% | 73.1% | 33.9% | 88.8% | 15.5 µM | –
CC(=O)c1cc(/C=C/c2ccccc2)cc2cc(-c3ccc(F)cc3)[nH]c12 | 69.5% | > 100 µM | 24.2% | 50.1% | 82.2% | 98.4% | 60.5% | 51.9% | 86.9% | 16.1 µM | –
CC(=O)c1cc(-c2ccccc2)cc2cc(-c3ccc(F)cc3)[nH]c12 | 91.9% | > 100 µM | 68.3% | 73.3% | 91.1% | 98.5% | 85.1% | 76.9% | 96.8% | > 100 µM | –
COc1ccc(-c2cc3cc(-c4ccc(F)cc4)cc(C(C)=O)c3[nH]2)cc1 | 77.5% | > 100 µM | 46.5% | 47% | 81% | 97.3% | 62.9% | 52% | 96.4% | 42.8 µM | –
CC(=O)c1cc(-c2ccc(F)cc2)cc2cc(-c3ccc(F)cc3)[nH]c12 | 90.6% | 87.4 µM | 9.31% | 20% | 90% | 99.8% | 71.6% | 47.4% | 93.2% | 13.8 µM | –
COc1ccc(-c2cc(C(C)=O)c3[nH]c(-c4ccc(F)cc4)cc3c2)cc1 | 52.9% | 16.8 µM | 20.6% | 14.8% | 74.5% | 88.4% | 56.1% | 46.5% | 69.7% | 9.46 µM | –
CC(=O)c1cc(-c2ccccc2)cc2cc(-c3ccccc3)[nH]c12 | 96.2% | > 100 µM | 51.4% | 65.8% | 72.3% | 99.3% | 65.8% | 60.9% | 98.6% | > 100 µM | –
CC(=O)c1cc(/C=C/c2ccc(F)cc2)cc2cc(-c3ccc(F)cc3)[nH]c12 | 67.4% | > 100 µM | 20.3% | 42.2% | 72.6% | 98.8% | 53.7% | 41.9% | 82% | 5.68 µM | Activity [11]: 0.35%; Activity [12]: 13.4%; Activity [13]: 20.4%; viability at 10 µM [14]: 22.4%; Activity [15]: 64.1%; Activity [16]: 0.5%; Activity [17]: 33.5%; viability at 5 µM [18]: 35.5%; Activity [19]: Active; viability at 2.5 µM [20]: 52.4%; Activity [21]: 14.35%; fold change (FC) [22]: 3; Activity [23]: 44%; Activity [25]: 0.2%
CC(=O)c1cc(/C=C/c2ccccc2)cc2cc(-c3ccccc3)[nH]c12 | 86.5% | > 100 µM | 21.2% | 34.1% | 99% | 99.5% | 79.8% | 52.5% | 93.4% | 30.8 µM | –
CC(=O)c1cc(/C=C/c2ccc(F)cc2)cc2cc(-c3ccccc3)[nH]c12 | 46.5% | 18.5 µM | 23.9% | 46.7% | 74.2% | 89.7% | 70% | 32.8% | 72.2% | 9.26 µM | –
COc1ccc(-c2cc3cc(/C=C/c4ccc(F)cc4)cc(C(C)=O)c3[nH]2)cc1 | 76.5% | 83 µM | 18.9% | 47.6% | 90.5% | 97.2% | 67% | 25.8% | 97.3% | 8.77 µM | –
